Assays:
[1] = tested on: Thanatephorus Cucumeris (Rhizoctonia Solani); experiment: Thanatephorus cucumeris (Rhizoctonia solani) / liquid culture (foot rot, damping-off); assay type: cell-based; conditions: liquid culture (PDB), growth inhibition photometrically 3-4 days after application, read-out: disease control
Description: Fungicidal Activity Against Thanatephorus Cucumeris (Rhizoctonia Solani)/Liquid Culture (Foot Rot, Damping-Off) Mycelia fragments of a newly grown liquid culture of the fungus were directly mixed into nutrient broth (PDB potato dextrose broth). After placing a (DMSO) solution of the test compounds into a microtiter plate (96-well format), the nutrient broth containing the fungal material was added. The test plates were incubated at 24° C. and the inhibition of growth was determined photometrically 3-4 days after application. Compounds (from table T1) 1, 2, 4, 7, 8, 10, 11, 13, 14 and 17 at 200 ppm give at least 80% disease control in this test when compared to untreated control leaf disks under the same conditions, which show extensive disease development.

[2] = tested on: Puccinia Recondita f. sp. Tritici; experiment: Puccinia recondita f. sp. tritici / wheat / leaf disc curative (brown rust); assay type: in vivo; conditions: foliar, 192 h, compared to untreated, 8 days after inoculation, read-out: disease control
Description: Fungicidal Activity Against Puccinia Recondita f. sp. Tritici/Wheat/Leaf Disc Curative (Brown Rust) Wheat leaf segments are placed on agar in multiwell plates (24-well format). The leaf disks are then inoculated with a spore suspension of the fungus. One day after inoculation the test solution is applied. After appropriate incubation the activity of a compound is assessed 8 dpi (days after inoculation) as curative fungicidal activity. Dose range: 200-22 ppm.

[3] = tested on: Mycosphaerella Arachidis (Cercospora Arachidicola); experiment: Mycosphaerella arachidis (Cercospora arachidicola) / liquid culture (early leaf spot); assay type: cell-based; conditions: liquid culture (PDB), growth inhibition photometrically 4-5 days after application, read-out: disease control
Description: (§1) Fungicidal Activity Against Mycosphaerella Arachidis (Cercospora Arachidicola)/Liquid Culture (Early Leaf Spot) Conidia of the fungus from cryogenic storage were directly mixed into nutrient broth (PDB potato dextrose broth). After placing a (DMSO) solution of test compound into a microtiter plate (96-well format), the nutrient broth containing the fungal spores was added. The test plates were incubated at 24° C. and the inhibition of growth was determined photometrically 4-5 days after application.

[4] = tested on: Puccinia Recondita f. sp. Tritici; experiment: Puccinia recondita f. sp. tritici / wheat / leaf disc preventative (brown rust); assay type: in vivo; conditions: foliar, wheat leaf disc cv. Kanzler, compared to untreated, 7-9 days after application, read-out: disease control
Description: Fungicidal Activity Against Puccinia Recondita f. sp. Tritici/Wheat/Leaf Disc Preventative (Brown Rust) Wheat leaf segments cv. Kanzler were placed on agar in multiwell plates (24-well format) and sprayed with the formulated test compound diluted in water. The leaf disks were inoculated with a spore suspension of the fungus 1 day after application. The inoculated leaf segments were incubated at 19° C. and 75% rh under a light regime of 12 h light/12 h darkness in a climate cabinet and the activity of a compound was assessed as percent disease control compared to untreated when an appropriate level of disease damage appears in untreated check leaf segments (7-9 days after application).

[5] = tested on: Mycosphaerella Graminicola (Septoria Tritici); experiment: Mycosphaerella graminicola (Septoria tritici) / liquid culture (Septoria blotch); assay type: cell-based; conditions: Zymoseptoria tritici, liquid culture (PDB), growth inhibition photometrically 4-5 days after application, read-out: disease control
Description: as §1, with “Graminicola (Septoria Tritici)/Liquid” for “Arachidis (Cercospora Arachidicola)/Liquid”, “(Septoria Blotch)” for “(Early Leaf Spot)”

[6] = tested on: Blumeria Graminis f. sp. Tritici (Erysiphe Graminis f. sp. Tritici); experiment: Blumeria graminis f. sp. tritici / wheat / leaf disc preventative (powdery mildew on wheat); assay type: in vivo; conditions: foliar, wheat leaf disc cv. Kanzler, compared to untreated, 6-8 days after application, read-out: disease control
Description: Fungicidal Activity Against Blumeria Graminis f. sp. Tritici (Erysiphe Graminis f. sp. Tritici)/Wheat/Leaf Disc Preventative (Powdery Mildew on Wheat) Wheat leaf segments cv. Kanzler were placed on agar in a multiwell plate (24-well format) and sprayed with the formulated test compound diluted in water. The leaf disks were inoculated by shaking powdery mildew infected plants above the test plates 1 day after application. The inoculated leaf disks were incubated at 20° C. and 60% rh under a light regime of 24 h darkness followed by 12 h light/12 h darkness in a climate chamber and the activity of a compound was assessed as percent disease control compared to untreated when an appropriate level of disease damage appears on untreated check leaf segments (6-8 days after application).

OC(Cn1cncn1)(c1ccc(F)cc1)C1(c2ncc(Br)cc2Cl)CC1 (stereo not drawn) [Compound 2, 1-[1-(5-bromo-3-chloro-2-pyridyl)cyclopropyl]-1-(4-fluorophenyl)-2-(1,2,4-triazol-1-yl)ethanol]
≥ 80%: inhibition of growth at 200 ppm [1] | pest or weed control at 200 ppm [2] | inhibition of growth at 200 ppm [3] | pest or weed control at 200 ppm [4] | inhibition of growth at 200 ppm [5] | pest or weed control at 200 ppm [6]
